Test results from patent publication US20050065064A1, “Identification of allosteric peptide agonists of CXCR4” (priority 2002, published 2005).
Where a SMILES comes first, the peptide text is derived from it.

Experiments:
CXCR4 [1] = biological target: T1, CXCR4 (Homo sapiens, UniProt P61073); assay: β-galactosidase assay in yeast expressing CXCR4 (FUS1-lacZ reporter); type: cell-based; design: The plasmid Cp4181 contains the CXCR4 gene under the control of the constitutive phosphoglycerate kinase (PGK1) promoter; expressed in transfected cells; host or cells: Saccharomyces cerevisiae CY12946 derivatives YAS2 / YAS3 (plasmid Cp4181)
Excerpt: The initial S. cerevisiae strain was CY12946 (MATα FUS1p-HIS3 GPA1Gαi2(5) canI farIΔI442 his3 leu2 sst2Δ2 ste14::trp1::LYS2 ste3Δ1156 tbt1-1 trp1 ura3) (23). Except for the specific chimeric Ga subunit expressed, CY12946 is genetically similar to CY1141, reported in Klein et al. (18), with two differences. First, the two strains express different Gα subunits. Specifically, CY12946 expresses a chimeric Gα subunit (GPA1Gαi2(5)) in which the C-terminal 5 amino acids of the yeast Ga subunit, GPA1, are replaced by the C-terminal 5 residues of Gαi2. In contrast, as described by Klein et al. (18), CY1141 expresses a chimeric Ga subunit (GPA1(41)Gαi2) in which the N-terminal 33 residues of Gαi2 are replaced by the 41 N-terminal residues of GPA1. We have used CY12946 in the current report because GPA1Gαi2(5) is more efficient than GPA1(41)Gαi2 in coupling CXCR4 to the pheromone response pathway. The use of GPA1Gαi2(5) necessitated deletion of SST2, which down-regulates the pheromone response pathway by accelerating the GTPase activity of GPA1. Thus, the second difference between CY12946 and CY1141 is the presence of an sst2 deletion allele in CY12946. All plasmids were 2μ-derived and contained a REP3 element for autonomous replication in S. cerevisiae and AmPR for selection in Escherichia coli. The plasmid Cp4181 contains the CXCR4 gene under the control of the constitutive phosphoglycerate kinase (PGK1) promoter and a LEU2 selectable marker. […] It also contains the TRP1 selectable marker. Cp6160 expresses full length wild-type SDF-1α in yeast under the control of the constitutive alcohol dehydrogenase (ADH1) promoter. The α-factor signal sequence is cloned at the 5′-end of the SDF sequence to allow secretion of the mature polypeptide. The vector also has the URA3 selectable marker allowing transformed cells to grow in media deficient in uracil. For expression of the 17-mer peptide library, Cp6293 was used. This URA3+plasmid was derived from Cp6160 and contains a frameshift in the SDF-1α sequence so that no functional protein is expressed unless an insert is appropriately cloned. The cDNA coding for 17-mer peptides was cloned using the restriction sites HindIII and Acc65I, which also results in the secretion of the mature peptide. S. cerevisiae strains YAS1, YAS2, YAS3 were constructed by transforming CY12946 with Cp1584, Cp1584/Cp4181 and Cp1584/Cp4181/Cp6160, respectively.
The liquid beta-galactosidase assays were performed essentially as described in (24) or (27) with the following modification. After growth in the appropriate medium, 5 ml of cells displaying the agonist phenotype were centrifuged (2500 rpm for 5 min) and resuspended in 0.5 ml as described (28).
To identify allosteric peptide agonists or modulators of CXCR4, it was necessary to establish an assay that could isolate molecules with the desired properties from a large peptide library. The screen that was used consisted of two steps. The first step was to isolate peptide sequences from a synthetic cDNA library that would allow cells to grow only after activation of CXCR4. A second step was required that would segregate agonists that bind to the native active site from those that bind to allosteric sites. This step involved an agonist assay in the presence of a receptor antagonist. A number of genetic modifications made to S. cerevisiae allowed it to be used for monitoring the interactions of peptides or proteins with CXCR4 (FIG. 1). […]
Target sequence in this assay (P61073 whole entry): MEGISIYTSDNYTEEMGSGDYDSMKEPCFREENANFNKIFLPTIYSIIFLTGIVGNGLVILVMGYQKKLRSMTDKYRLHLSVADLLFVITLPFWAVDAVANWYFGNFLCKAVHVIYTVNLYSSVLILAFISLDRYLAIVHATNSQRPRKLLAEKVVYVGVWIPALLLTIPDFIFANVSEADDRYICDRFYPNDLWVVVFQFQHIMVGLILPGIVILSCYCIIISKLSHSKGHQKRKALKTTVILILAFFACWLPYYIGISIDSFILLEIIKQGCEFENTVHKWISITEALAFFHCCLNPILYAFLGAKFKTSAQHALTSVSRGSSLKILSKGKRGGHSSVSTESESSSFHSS

CXCR4 [2] = biological target: T1, CXCR4; assay: Yeast growth / colony formation in histidine-deficient medium (FUS1-HIS3); type: cell-based; design: The plasmid Cp4181 contains the CXCR4 gene under the control of the constitutive phosphoglycerate kinase (PGK1) promoter; expressed in transfected cells; host or cells: Saccharomyces cerevisiae CY12946 derivatives YAS2 / YAS3 (plasmid Cp4181)
Experimental: All basic media were prepared essentially as described (24). In cases where plasmid selection was necessary, media that lacked uracil, leucine, or tryptophan or an appropriate combination of these nutrients were employed. Library screening was performed in plates that lacked histidine and contained 3-amino-1,2,4-triazole (Sigma), which suppresses the basal level of histidine biosynthesis due to the activity of the FUS1 promoter.
A number of genes for biosynthetic enzymes have been mutated to allow selection of the corresponding marker on a plasmid transformed into the yeast strain. The genomic HIS3 gene, coding for an enzyme essential for the biosynthesis of histidine, has been disrupted by an insertion. The wild-type HIS3 gene has been placed under the control of the pheromone-responsive FUS1 promoter; as a result activation of CXCR4 enables cells to grow in media lacking histidine. To reduce false positives due to any basal activity of FUS1-HIS3,3-amino-1,2,4-triazole, an inhibitor of the enzyme coded by HIS3, is present at low levels in the media during agonist selection. […] Furthermore, the CXCR4 antagonist AMD3100 (34) inhibited YAS2 colony formation (data not shown) and β-galactosidase activity in response to SDF-1α (FIG. 2C).
Target sequence in this assay (P61073 whole entry): as above

HIV-1 = details: in vitro; reference (58); cited from earlier work
[3] = references (55), (56); cited from earlier work
CCRF-CEM cells = assay: Chemotaxis assay (transwell) on CCRF-CEM cells; type: cell-based, human
Experimental: The CCRF-CEM acute lymphoblastic leukemia cell line was previously shown to express CXCR4 and to migrate in response to SDF-1α (31). The procedure involved cells that were ˜70-80% confluent and were centrifuged at 1000 rpm for 5 min and resuspended at a concentration of ˜10^7 cells/ml. The transwell system (Corning-Costar^R) was used for quantifying the chemotactic response. Six hundred μl of solution with different concentrations of a CXCR4 agonist were added to the bottom of the wells of 24-well culture plates. One hundred μl of the cell suspension was aliquoted in the transwell cups and inserted in the wells. The bottom of the cups is layered with a membrane that has a 5 μm pore size and allows cell movement towards the higher concentration of chemoattractant. The cells were incubated for 2h at 37° C., after which the migrated cells were collected and counted with an electronic particle counter (Coulter^R). In cases where the effect of neutralization by CXCR4 monoclonal antibodies or antagonists was examined, the inhibitor was added to the upper compartment along with the cells.

CXCR4 [4] = biological target: T1, CXCR4; assay: Flow cytometry of CXCR4 surface levels (12G5 indirect staining); type: cell-based
Experimental: Flow cytometric analysis of cell subpopulations was performed using a FACS Vantage flow cytometer (Becton-Dickinson Immunocytometry Systems, San Jose, Calif.) for detection of CXCR4 surface expression with the 12G5 monoclonal antibody. An indirect staining protocol was used. Briefly, after a 90 min incubation with various agents, the cells were washed and resuspended in PBS. Nonspecific (Fc-mediated) binding was blocked using purified rat IgG. The primary antibody (12G5, a mouse IgG2a antibody) was added at 1 μg/ml for 45 min. After centrifugation the cells were resuspended in PBS and the secondary antibody (FITC-linked rat anti-mouse IgG2a) was added at 10 μg/ml for 45 min. The cells were fixed with 2% formaldehyde (in PBS) and used within 2 days for data acquisition. Mouse IgG2a was used as an isotype control. For the fluorescence measurements the cells were excited at 488 nm. The FITC fluorescence was collected through a 530/30 nm band pass filter. A minimum of 15,000 cells were examined for each sample. Analysis of data was performed using the CellQuest software (Becton-Dickinson).
Target sequence in this assay (P61073 whole entry): as above

CXCR4 [5] = assay: β-galactosidase assay in yeast expressing CXCR4 (FUS1-lacZ reporter); type: cell-based, human; details: yeast lacking CXCR4; data not shown
Excerpt: The initial S. cerevisiae strain was CY12946 (MATα FUS1p-HIS3 GPA1Gαi2(5) canI farIΔI442 his3 leu2 sst2Δ2 ste14::trp1::LYS2 ste3Δ1156 tbt1-1 trp1 ura3) (23). Except for the specific chimeric Ga subunit expressed, CY12946 is genetically similar to CY1141, reported in Klein et al. (18), with two differences. First, the two strains express different Gα subunits. Specifically, CY12946 expresses a chimeric Gα subunit (GPA1Gαi2(5)) in which the C-terminal 5 amino acids of the yeast Ga subunit, GPA1, are replaced by the C-terminal 5 residues of Gαi2. In contrast, as described by Klein et al. (18), CY1141 expresses a chimeric Ga subunit (GPA1(41)Gαi2) in which the N-terminal 33 residues of Gαi2 are replaced by the 41 N-terminal residues of GPA1. We have used CY12946 in the current report because GPA1Gαi2(5) is more efficient than GPA1(41)Gαi2 in coupling CXCR4 to the pheromone response pathway. The use of GPA1Gαi2(5) necessitated deletion of SST2, which down-regulates the pheromone response pathway by accelerating the GTPase activity of GPA1. Thus, the second difference between CY12946 and CY1141 is the presence of an sst2 deletion allele in CY12946. All plasmids were 2μ-derived and contained a REP3 element for autonomous replication in S. cerevisiae and AmPR for selection in Escherichia coli. […]

CXCR4 [6] = biological target: T1, CXCR4; details: reference (31); cited from earlier work
Target sequence in this assay (P61073 whole entry, species assumed): as the sequence (P61073 whole entry) above

Q: Which “effect on basal level of the pheromone-responsive Fus1 promoter” value (CXCR4 [1]; AMD3100 1 μM (FIG. 2C)) does the source give for `c1cc(CN2CCCNCCNCCCNCC2)ccc1CN1CCCNCCNCCCNCC1` [AMD3100, reference compound] here?
A: Its value is “does not effect the basal level”.

Q: And the “inhibition of β-galactosidase activity in response to SDF-1α” value (CXCR4 [1]; AMD3100 1 μM, SDF-1α 100 nM (FIG. 2C))?
A: The value was “inhibited”.

Q: And the YAS2 colony formation (CXCR4 [2]; in response to SDF-1α, data not shown)?
A: The YAS2 colony formation was “inhibited”.

Q: What about the “interaction between T-20 and AMD3100” value (HIV-1) of the same compound?
A: The value was “strong in vitro synergy”.

Q: And the “toxicity / adverse effects in clinical trials” value [3]?
A: Its value is “cardiac toxicity”.

Q: With `CC(C)C[C@H](NC(=O)[C@H](CO)NC(=O)[C@H](C)N)C(=O)N[C@@H](Cc1c[nH]c2ccccc12)C(=O)N[C@@H](CC(C)C)C(=O)N[C@@H](CO)C(=O)N[C@@H](Cc1ccc(O)cc1)C(=O)N[C@@H](CCCNC(=N)N)C(=O)N[C@@H](CS)C(=O)N1CCC[C@H]1C(=O)N[C@@H](CS)C(=O)N[C@@H](CCCNC(=N)N)C(=O)N[C@@H](Cc1ccccc1)C(=O)N[C@@H](Cc1ccccc1)C(=O)N[C@@H](CCC(=O)O)C(=O)N[C@@H](CO)C(=O)N[C@@H](Cc1c[nH]cn1)C(=O)O` [ASLW] (H-ASLWLSYRCPCRFFESH-OH; N-terminus and C-terminus assumed) as the compound, how does the “agonist character in chemotaxis (chemotactic index relative to SDF-Fc)” value (CCRF-CEM cells; CCRF-CEM cells) read?
A: Its value is “superagonist activity”.

Q: And the EC50 (CCRF-CEM cells; CCRF-CEM cells (FIG. 4A, 4B), read-out: apparent EC50, chemotaxis)?
A: The EC50 was over 60000 nM.

Q: And the “chemotactic activity combined with SDF-Fc” value (CCRF-CEM cells; CCRF-CEM cells (FIG. 4D))?
A: The value was “approximately additive”.

Q: And the “chemotaxis in the presence of the two peptide agonists ASLW and RSVM” value (CCRF-CEM cells; CCRF-CEM cells (FIG. 4E))?
A: Its value is “additive”.

Q: And the “effect of AMD3100 on chemotactic activity of the agonist” value (CCRF-CEM cells; CCRF-CEM cells, AMD3100 up to 100 μg/ml (~115 μM))?
A: Its value is “Strong resistance to inhibition”.

Q: What about the “effect of T140 on chemotactic activity of the agonist” value (CCRF-CEM cells; CCRF-CEM cells, T140 up to concentrations comparable to the agonists) of the same compound?
A: The value was “does not inhibit”.

Q: What about the “effect of antibody 44717.111 on chemotactic activity of the agonist” value (CCRF-CEM cells; CCRF-CEM cells, up to 50 μg/ml for the peptides, ten-fold lower for SDF-Fc) of the same compound?
A: Its value is “neither RSVM- nor ASLW-mediated chemotactic activity is significantly affected”.

Q: What about the “resistance of β-galactosidase activity to AMD3100” value (CXCR4 [1]; peptide-expressing yeast clones) of the same compound?
A: The value was “resistance to AMD3100”.

Q: What about the “β-galactosidase activity on endogenous expression of the peptide” value (CXCR4 [1]; yeast strains with or without CXCR4 (FIG. 3)) of the same compound?
A: The value was “significant increase of β-galactosidase activity only in the strain that co-expresses CXCR4”.

Q: And the “effect on CXCR4 levels on the cell surface” value (CXCR4 [4]; 90 min incubation, SDF-Fc 1 μM, RSVM 200 μM, ASLW 100 μM (FIG. 8A-C))?
A: Its value is “only aminor decrease”.

Q: What about the “concentration dependence of the effect on CXCR4 surface levels” value (CXCR4 [4]; FIG. 8D, 8E) of the same compound?
A: Its value is “No significant concentration-dependent response”.

Q: With SDF-1α as the compound, how does the “induction of β-galactosidase activity” value (CXCR4 [1]; HIS3-/CXCR4+ yeast with FUS1-lacZ, SDF-1α 100 nM, D-SDF-1α 100 nM, 14-mer 1 μM (FIG. 2B)) read?
A: Its value is “induces an increase of β-galactosidase activity”.

Q: And the “growth in the absence of histidine” value (CXCR4 [2]; endogenously expressed SDF-1α, strain expressing CXCR4 (FIG. 2A))?
A: Its value is “allows the strain expressing CXCR4 to grow in the absence of this amino acid”.

Q: And the “response of strain without the receptor (YAS 1)” value (CXCR4 [5])?
A: Its value is “does not respond”.

Q: What about the EC50 (CXCR4 [6]) of the same compound?
A: Its EC50 is 1 to 10 nM.
